Patent US20230192676A1, “Heterocyclic Amides as Kinase Inhibitors” (GLAXOSMITHKLINE INTELLECTUAL PROPERTY DEVELOPMENT LIMITED, priority 2017, published 2023)

tested on: U937 cells; assay: necroptosis assay in human monocytic leukemia U937 cells (Cell Titer-Glo ATP viability readout); assay type: cell-based; details: U-937, viability by cellular ATP (Cell Titer-Glo), values approximate, read-out: pIC50, inhibition of necrosis in U937 cells (converted)
Protocol: The efficacy of RIP1 inhibitors can be tested in […] in vitro using a human monocytic leukemia U937 in a necroptosis assay. As determined using the method described in S. He et al., Cell, 137(6):1100-1111 (2009) and International Patent Appln. No. PCT/IB2014/059004, now, International Patent Appln. Pub.
Viability was measured by quantitating cellular levels of ATP using the Cell Titer-Glo kit. All data are means±standard deviation of the mean.

| SMILES | IC50 [nM] |
| --- | --- |
| NC(=O)c1cc(N2CC[C@H](C(=O)N3OCC[C@@H]3c3cc(F)cc(F)c3)[C@H](F)C2)ncn1 [Example 26, 6-((3S,4R)-4-((R)-3-(3,5-difluorophenyl)isoxazolidine-2-carbonyl)-3-fluoropiperidin-1-yl)pyrimidine-4-carboxamide] | 1 to 100 |
| O=C([C@H]1CCN(c2nnco2)C[C@H]1F)N1OCC[C@@H]1c1cc(F)cc(F)c1 [Example 22, ((R)-3-(3,5-difluorophenyl)isoxazolidin-2-yl)((3S,4R)-3-fluoro-1-(1,3,4-oxadiazol-2-yl)piperidin-4-yl)methanone] | 1 to 100 |
| NC(=O)c1cc(N2CCC(C(=O)N3OCC[C@H]3c3cc(F)cc(F)c3)CC2)ncn1 [Example 4, (S)-6-(4-(3-(3,5-difluorophenyl)isoxazolidine-2-carbonyl)piperidin-1-yl)pyrimidine-4-carboxamide] | 1 to 100 |
| CNC(=O)c1cc(N2CC[C@H](C(=O)N3OCC[C@@H]3c3cc(F)cc(F)c3)[C@H](F)C2)ncn1 [Example 30, 6-((3S,4R)-4-((R)-3-(3,5-difluorophenyl)isoxazolidine-2-carbonyl)-3-fluoropiperidin-1-yl)-N-methylpyrimidine-4-carboxamide] | 1 to 100 |
| Cc1nnc(N2CCC(C(=O)N3OCC[C@H]3c3cc(F)cc(F)c3)CC2)o1 [Example 5, (S)-(3-(3,5-difluorophenyl)isoxazolidin-2-yl)(1-(5-methyl-1,3,4-oxadiazol-2-yl)piperidin-4-yl)methanone] | 1 to 100 |
| CNC(=O)c1cc(N2CC[C@@H](C(=O)N3OCC[C@@H]3c3cc(F)cc(F)c3)[C@@H](F)C2)ncn1 [Example 32, 6-((3R,4S)-4-((R)-3-(3,5-difluorophenyl)isoxazolidine-2-carbonyl)-3-fluoropiperidin-1-yl)-N-methylpyrimidine-4-carboxamide] | 1 to 100 |
| CN(C)C(=O)c1cc(N2CC[C@H](C(=O)N3OCC[C@@H]3c3cc(F)cc(F)c3)[C@H](F)C2)ncn1 [Example 34, 6-((3S,4R)-4-((R)-3-(3,5-difluorophenyl)isoxazolidine-2-carbonyl)-3-fluoropiperidin-1-yl)-N,N-dimethylpyrimidine-4-carboxamide] | 1 to 100 |
| C[S@+]([O-])c1cc(N2CC[C@@H](C(=O)N3OCC[C@@H]3c3cc(F)cc(F)c3)[C@@H](F)C2)ncn1 [Example 46, ((R)-3-(3,5-difluorophenyl)isoxazolidin-2-yl)((3R,4S)-3-fluoro-1-(6-((S)-methylsulfinyl)pyrimidin-4-yl)piperidin-4-yl)methanone] | 1 to 100 |
| CC(=O)N1CCC(C(=O)N2OCC[C@H]2c2cc(F)cc(F)c2)CC1 [Example 2, (S)-1-(4-(3-(3,5-difluorophenyl)isoxazolidine-2-carbonyl)piperidin-1-yl)ethan-1-one] | 1 to 100 |
| N#Cc1cc(N2CCC(C(=O)N3OCC[C@H]3c3cc(F)cc(F)c3)CC2)ncn1 [Example 8, (S)-6-(4-(3-(3,5-difluorophenyl)isoxazolidine-2-carbonyl)piperidin-1-yl)pyrimidine-4-carbonitrile] | 1 to 100 |
| CN(C)C(=O)c1cc(N2CCC(C(=O)N3OCC[C@H]3c3cc(F)cc(F)c3)CC2)ncn1 [Example 10, (S)-6-(4-(3-(3,5-difluorophenyl)isoxazolidine-2-carbonyl)piperidin-1-yl)-N,N-dimethylpyrimidine-4-carboxamide] | 1 to 100 |
| C[S@@+]([O-])c1cc(N2CC[C@H](C(=O)N3OCC[C@@H]3c3cc(F)cc(F)c3)[C@H](F)C2)ncn1 [Example 44, ((R)-3-(3,5-difluorophenyl)isoxazolidin-2-yl)((3S,4R)-3-fluoro-1-(6-((R)-methylsulfinyl)pyrimidin-4-yl)piperidin-4-yl)methanone] | 1 to 100 |
| Cc1nnc(N2CC[C@H](C(=O)N3OCC[C@@H]3c3cc(F)cc(F)c3)[C@H](F)C2)o1 [Example 16, ((R)-3-(3,5-difluorophenyl)isoxazolidin-2-yl)((3S,4R)-3-fluoro-1-(5-methyl-1,3,4-oxadiazol-2-yl)piperidin-4-yl)methanone] | 1 to 100 |
| CNC(=O)c1cc(N2CCC(C(=O)N3OCC[C@H]3c3cc(F)cc(F)c3)CC2)ncn1 [Example 9, (S)-6-(4-(3-(3,5-difluorophenyl)isoxazolidine-2-carbonyl)piperidin-1-yl)-N-methylpyrimidine-4-carboxamide] | 1 to 100 |
| CN(C)C(=O)c1cc(N2CC[C@H](C(=O)N3OCC[C@H]3c3cc(F)cc(F)c3)[C@H](F)C2)ncn1 [Example 35, 6-((3S,4R)-4-((S)-3-(3,5-difluorophenyl)isoxazolidine-2-carbonyl)-3-fluoropiperidin-1-yl)-N,N-dimethylpyrimidine-4-carboxamide] | 1 to 100 |
| Cc1nnc(N2CC[C@@H](C(=O)N3OCC[C@@H]3c3cc(F)cc(F)c3)[C@@H](F)C2)o1 [Example 18, ((R)-3-(3,5-difluorophenyl)isoxazolidin-2-yl)((3R,4S)-3-fluoro-1-(5-methyl-1,3,4-oxadiazol-2-yl)piperidin-4-yl)methanone] | 1 to 100 |
